Laboratory results published in patent US9579378B2, “Combinations and uses thereof” (MORPHOSYS AG, priority 2012, dated 2017).

Tests used:
[1] = system: Human Multiple Myeloma NCI-H929 cells; assay: Orthotopic osteolysis model, microCT analysis of tibia (bone lysis); format: in vivo, SCID mice; settings: for Total Bone Lysis: microCT, day 42, vehicle control = 100.0, Melphalan 4 mg/kg i.v., MOR03087 3 mg/kg i.p., 3x weekly for 6 weeks, data of FIG. 1
[2] = system: Human Multiple Myeloma NCI-H929 cells; assay: M-Protein concentration in sera (ELISA) on day 42 of the orthotopic osteolysis model; format: in vivo, SCID mice; settings: sera at termination (day 42), versus mice that received solvent diluent only, FIG. 3

For N[C@@H](Cc1ccc(N(CCCl)CCCl)cc1)C(=O)O [Melphalan], the “Bone lysis (microCT, FIG. 2)” value ([1]; Melphalan 8 mg/kg alone, i.v. 3x weekly for 6 weeks, day 42) was “reduced bone lysis completely”, the “Total Bone Lysis” value [1] was 61.3% and the “Protein M concentration in sera” value [2] was “significantly reduced”.

B1: MOR03087: anti-CD38 antibody whose amino acid sequence and DNA sequence is provided in FIG. 4; disclosed in U.S. Pat. No. 8,088,896 (antibody, listed as Homo sapiens, V domains shown)
VH: QVQLVESGGGLVQPGGSLRLSCAASGFTFSSYYMNWVRQAPGKGLEWVSGISGDPSNTYYADSVKGRFTISRDNSKNTLYLQMNSLRAEDTAVYYCARDLPLVYTGFAYWGQGTLVTVSS
VL: DIELTQPPSVSVAPGQTARISCSGDNLRHYYVYWYQQKPGQAPVLVIYGDSKRPSGIPERFSGSNSGNTATLTISGTQAEDEADYYCQTYTGGASLVFGGGTKLTVLGQ
modifications: MOR202 Variable Heavy Domain; MOR202 Variable Light Domain
B1 was tested, and the “Total Bone Lysis” value [1] was 27.6% and the “Protein M concentration in sera” value [2] was “significantly reduced”.
